pKd: −log10 of the molar value. In brackets after ≈: the same amount, converted by molar mass. Blank lines part the entries; values can stand above or below the molecule they belong to. Activity calls are given as the source filed them. No cut-off for these calls is given here.
Assays:
PXR = biological target: T1, PXR (Homo sapiens, UniProt O75469); experiment: Activation of human PXR assessed as fold change at 10 uM relative to DMSO; type: toxicity; conditions: read-out: FC
T1 sequence (O75469 whole entry): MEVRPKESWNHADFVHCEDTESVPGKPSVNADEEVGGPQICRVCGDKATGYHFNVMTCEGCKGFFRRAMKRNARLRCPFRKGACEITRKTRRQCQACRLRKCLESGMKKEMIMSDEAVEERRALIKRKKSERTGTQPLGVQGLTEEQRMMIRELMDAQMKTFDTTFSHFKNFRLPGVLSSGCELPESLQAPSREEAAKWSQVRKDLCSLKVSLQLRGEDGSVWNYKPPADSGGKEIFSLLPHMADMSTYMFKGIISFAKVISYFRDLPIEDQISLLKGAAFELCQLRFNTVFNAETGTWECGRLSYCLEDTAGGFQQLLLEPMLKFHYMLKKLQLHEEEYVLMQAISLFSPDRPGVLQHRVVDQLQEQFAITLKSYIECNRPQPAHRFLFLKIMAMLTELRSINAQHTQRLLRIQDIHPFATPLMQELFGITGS

[1] = Metabolic stability in rat hepatocytes assessed as intrinsic clearance measured per 10^6 cells; type: ADME, cell-based, Hepatocyte
[2] = Lipophilicity, logD of compound at pH 7.4 by shake flask method; type: physicochemical; conditions: buffer
[3] = Metabolic stability in human liver microsomes assessed as intrinsic clearance; type: ADME, Microsome
[4] = Unbound brain-to-plasma concentration ratio in rat; type: ADME, cell-free; conditions: read-out: K(p,uu,brain)
[5] = Half life in mouse at 1 mg/kg, po or 0.5 mg/kg, iv; type: ADME, organism-based; conditions: in vivo
[6] = Oral bioavailability in mouse at 1 mg/kg; type: ADME, organism-based; conditions: in vivo
NCI-H441 = experiment: Antiproliferative activity against human NCI-H441 cells harboring MTAP knockout; type: functional, cell-based
[7] = Solubility in FeSSIF at pH 5; type: ADME
[8] = Half life in rat at 1 mg/kg, po or 0.5 mg/kg, iv; type: ADME, organism-based; conditions: in vivo
[9] = Plasma protein binding in mouse assessed as free fraction by equilibrium dialysis; type: ADME, cell-free
[10] = Solubility in simulated gastric fluid at pH 1; type: ADME
animal or person [11] = conditions: Mus musculus, NCR nude, HCT116-MTAP null, po, read-out: INH
[12] = Plasma protein binding in rat assessed as free fraction by equilibrium dialysis; type: ADME, cell-free
[13] = Solubility in FaSSIF at pH 6.5; type: ADME
[14] = Plasma protein binding in dog assessed as free fraction by equilibrium dialysis; type: ADME, cell-free, Canis lupus familiaris
[15] = Volume of distribution at steady state in rat at 1 mg/kg, po or 0.5 mg/kg, iv; type: ADME, organism-based; conditions: in vivo
[16] = Intrinsic clearance in mouse hepatocytes measured per 10^6 cells; type: ADME, cell-based, Hepatocyte; conditions: read-out: CLH
HCT116-MTAP null = experiment: Antitumor activity against human HCT116-MTAP null cells xenografted in NCR nude mouse assessed as reduction in tumor volume at 20 mg/kg, po administered twice daily for 24 days and measured twice weekly; type: functional, organism-based; conditions: time 24.0 day
[17] = Aqueous solubility in phosphate buffer at pH 7.4 measured after 24 hrs; type: physicochemical
[18] = Volume of distribution at steady state in mouse at 1 mg/kg, po or 0.5 mg/kg, iv; type: ADME, organism-based; conditions: in vivo
[19] = Apparent permeability in human Caco-2 cells at 10 uM; type: ADME, cell-based
cells = conditions: Homo sapiens, HCT116-MTAP null, 120 h, read-out: pGI50 (converted)
[20] = Oral bioavailability in rat at 1 mg/kg; type: ADME, organism-based; conditions: in vivo
[21] = Unbound fraction in nude mouse plasma at 30 mg/kg, po measured after 24 hrs; type: ADME, organism-based
animal or person [22] = conditions: Mus musculus, NCR nude, HCT116-MTAP null, po, read-out: INH; remark: listed apart in the source
[23] = Plasma protein binding in human assessed as free fraction by equilibrium dialysis; type: ADME, cell-free
HCT-116 = experiment: cells; conditions: Homo sapiens, HCT-116, 120 h, read-out: pGI50 (converted)
[24] = biological target: S-adenosylmethionine synthase isoform type-2 (Homo sapiens, UniProt P31153); experiment: Binding affinity to MAT2a (unknown origin) assessed as dissociation constant by ITC analysis
Chain of S-adenosylmethionine synthase isoform type-2 (P31153 whole entry, canonical isoform): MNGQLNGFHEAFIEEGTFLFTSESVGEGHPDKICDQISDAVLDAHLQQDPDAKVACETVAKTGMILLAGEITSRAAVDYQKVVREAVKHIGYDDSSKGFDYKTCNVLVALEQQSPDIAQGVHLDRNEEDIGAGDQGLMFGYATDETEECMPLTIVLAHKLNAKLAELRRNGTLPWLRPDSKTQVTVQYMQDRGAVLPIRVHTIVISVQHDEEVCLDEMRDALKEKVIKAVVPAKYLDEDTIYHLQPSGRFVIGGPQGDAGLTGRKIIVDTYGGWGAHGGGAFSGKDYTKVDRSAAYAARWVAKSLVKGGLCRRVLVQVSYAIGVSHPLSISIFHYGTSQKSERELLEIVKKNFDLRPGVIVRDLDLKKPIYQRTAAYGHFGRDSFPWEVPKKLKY

Compound: COc1ccc(-n2cc3cnc(NCC(F)(F)F)nc3c(-c3ccc(Br)cc3)c2=O)cc1
fold induction at 10 µM (PXR): 25

hepatocyte CLint [1]: < 1 µL/min/1e6 cells | logD [2]: 3.1
Compound: Cn1nnc2ccc(-c3cc4[nH]nc(C5CC5)c4n(-c4ccc(OC(F)F)cc4)c3=O)cc21

hepatocyte CLint [1]: < 1 µL/min/1e6 cells | logD [2]: 3
Compound: Cn1cc2cc(-c3cc4[nH]nc(C5CC5)c4n(-c4ccc(OC(F)F)nc4)c3=O)ccc2n1

hepatocyte CLint [1]: 4 µL/min/1e6 cells | logD [2]: 2.3
Compound: Cn1cc2cc(-c3cc4[nH]nc(C5CC5)c4n(-c4ccc(CCO)cc4)c3=O)ccc2n1

hepatocyte CLint [1]: 3 µL/min/1e6 cells | logD [2]: 2.8
Compound: COc1ccc(-n2c(=O)c(-c3ccc4nn(C)cc4c3)cc3[nH]nc(C4CC4)c32)cc1

hepatocyte CLint [1]: 25 µL/min/1e6 cells | logD [2]: 3.4
Compound: Cn1cc2ccc(-c3cc4[nH]nc(C5CC5)c4n(-c4ccc(OC(F)F)cc4)c3=O)cc2n1

hepatocyte CLint [1]: 35 µL/min/1e6 cells | logD [2]: 2.2
Compound: Cn1cc2cc(-c3cc4[nH]nc(C5CC5)c4n(-c4ccc(CO)cc4)c3=O)ccc2n1

hepatocyte CLint [1]: 5 µL/min/1e6 cells | logD [2]: 3.4
Compound: Cn1cc2cc(-c3cc4[nH]nc(C5CC5)c4n(-c4ccc(Cl)cc4)c3=O)ccc2n1

hepatocyte CLint [1]: 38 µL/min/1e6 cells | microsomal CLint [3]: 89 µL/min/mg | logD [2]: 3.3
Compound: COc1ccc(-c2nccc3[nH]nc(C4CC4)c23)cc1

hepatocyte CLint [1]: < 1 µL/min/1e6 cells | logD [2]: 3.1
Compound: CCc1n[nH]c2cc(-c3ccc4nn(C)cc4c3)c(=O)n(-c3ccc(OC(F)F)cc3)c12

hepatocyte CLint [1]: 5 µL/min/1e6 cells | logD [2]: 2.2
Compound: Cc1ccc(-n2c(=O)c(-c3ccc4nn(C)cc4c3)cc3[nH]nc(C4CC4)c32)nc1

hepatocyte CLint [1]: < 1 µL/min/1e6 cells | microsomal CLint [3]: < 3 µL/min/mg | logD [2]: 1.6
Compound: [O-][n+]1ccc2[nH]nc(C3CC3)c2c1-c1ccc(OC(F)F)cc1

Kp uu [4]: 0.03 | half-life [5]: 3 h | hepatocyte CLint [1]: < 1 µL/min/1e6 cells | bioavailability [6]: 100% | solubility [7]: 11.2 µM (≈ 5.01 µg/mL) | half-life [8]: 6.3 h | fraction unbound [9]: 0.03 | solubility [10]: 70.4 µM (≈ 31.5 µg/mL) | fraction unbound [12]: 0.006 | solubility [13]: 3.3 µM (≈ 1.48 µg/mL) | fraction unbound [14]: 0.12 | Vdss [15]: 0.8 L/kg | hepatocyte CLint [16]: 1.4 µL/min/1e6 cells | solubility at 24 h [17]: 3.2 µM (≈ 1.43 µg/mL) | Vdss [18]: 5.5 L/kg | Papp at 10 µM [19]: 9.4 ×10⁻⁶ cm/s | bioavailability [20]: 100% | fraction unbound at 24 h [21]: 0.029 | logD [2]: 3.4 | fraction unbound [23]: 0.032
Compound: Cn1cc2cc(-c3cc4[nH]nc(C5CC5)c4n(-c4ccc(OC(F)F)cc4)c3=O)ccc2n1
Activity (NCI-H441): Active | inhibition in vivo at 20 mg/kg (animal or person [11]): > 90% | Activity (HCT116-MTAP null): Active | GI50 (cells): 79.4 nM | inhibition in vivo at 20 mg/kg (animal or person [22]): > 90%

hepatocyte CLint [1]: 5 µL/min/1e6 cells | logD [2]: 2.4
Compound: C[C@@H](O)c1ccc(-n2c(=O)c(-c3ccc4nn(C)cc4c3)cc3[nH]nc(C4CC4)c32)cc1

GI50 (HCT-116): 1580 nM
Compound: COc1ccc(-c2c(Nc3ccccn3)[nH]c3c(C4=CCCCC4)c(-c4ccccc4)nn3c2=O)cc1
GI50 (cells): 501 nM

hepatocyte CLint [1]: 7 µL/min/1e6 cells | logD [2]: 3.4
Compound: COc1ccc(-c2cc3[nH]nc(C4CC4)c3n(-c3ccc(OC(F)F)cc3)c2=O)nc1

hepatocyte CLint [1]: 5 µL/min/1e6 cells | microsomal CLint [3]: < 3 µL/min/mg | logD [2]: 3.9
Compound: N#Cc1cc2[nH]nc(C3CC3)c2c(-c2ccc(OC(F)F)cc2)n1

hepatocyte CLint [1]: 4 µL/min/1e6 cells | logD [2]: 2.5
Compound: Cn1cc2cc(-c3cc4[nH]nc([C@@H]5CCOC5)c4n(-c4ccc(OC(F)F)cc4)c3=O)ccc2n1

hepatocyte CLint [1]: 1 µL/min/1e6 cells | microsomal CLint [3]: < 3 µL/min/mg | logD [2]: 2.1
Compound: O=c1ccc2[nH]nc(C3CC3)c2n1-c1ccc(OC(F)F)cc1

hepatocyte CLint [1]: 19 µL/min/1e6 cells | logD [2]: 2.4
Compound: CCc1ccc(-n2c(=O)c(-c3ccc4nn(C)cc4c3)cc3[nH]nc(C4CC4)c32)cn1

hepatocyte CLint [1]: 2 µL/min/1e6 cells | logD [2]: 3.4
Compound: O=c1c(-c2ccc(O)cc2)cc2[nH]nc(C3CC3)c2n1-c1ccc(OC(F)F)cc1

hepatocyte CLint [1]: 2 µL/min/1e6 cells | logD [2]: 2.5
Compound: Cn1cc2cc(-c3cc4[nH]nc(C5CC5)c4n(-c4ccc(OC(F)F)cn4)c3=O)ccc2n1

hepatocyte CLint [1]: < 1 µL/min/1e6 cells | microsomal CLint [3]: < 3 µL/min/mg | logD [2]: 1.3
Compound: COc1ccc(-c2c3c(C4CC4)n[nH]c3cc[n+]2[O-])cc1

pKd [24]: 6.77
Compound: CN(C)CCc1nnc2cc(-c3ccccc3)c3cc(Cl)ccc3n12

hepatocyte CLint [1]: < 1 µL/min/1e6 cells | logD [2]: 1.6
Compound: Cc1ncc(-n2c(=O)c(-c3ccc4nn(C)cc4c3)cc3[nH]nc(C4CC4)c32)cn1

hepatocyte CLint [1]: < 1 µL/min/1e6 cells | logD [2]: 2.2
Compound: Cc1ccc(-n2c(=O)c(-c3ccc4nn(C)cc4c3)cc3[nH]nc(C4CC4)c32)cn1

hepatocyte CLint [1]: < 1 µL/min/1e6 cells | logD [2]: 2.3
Compound: CNc1ccc(-n2c(=O)c(-c3ccc4nn(C)cc4c3)cc3[nH]nc(C4CC4)c32)cn1

hepatocyte CLint [1]: 20 µL/min/1e6 cells | microsomal CLint [3]: 54 µL/min/mg | logD [2]: 3.8
Compound: FC(F)Oc1ccc(-c2nccc3[nH]nc(C4CC4)c23)cc1

hepatocyte CLint [1]: 26 µL/min/1e6 cells | microsomal CLint [3]: 21 µL/min/mg | logD [2]: > 4.5
Compound: COc1ccc(-c2cc3[nH]nc(C4CC4)c3c(-c3ccc(OC(F)F)cc3)n2)cc1

hepatocyte CLint [1]: 25 µL/min/1e6 cells | logD [2]: 3.3
Compound: Cc1ccc(-n2c(=O)c(-c3ccc4nn(C)cc4c3)cc3[nH]nc(C4CC4)c32)cc1

hepatocyte CLint [1]: < 1 µL/min/1e6 cells | logD [2]: 3
Compound: Cc1n[nH]c2cc(-c3ccc4nn(C)cc4c3)c(=O)n(-c3ccc(OC(F)F)cc3)c12

hepatocyte CLint [1]: 14 µL/min/1e6 cells | logD [2]: 4
Compound: O=c1c(-c2ccccc2)cc2[nH]nc(C3CC3)c2n1-c1ccc(OC(F)F)cc1

hepatocyte CLint [1]: < 2 µL/min/1e6 cells | logD [2]: 3.5
Compound: Cc1nc2ccc(-c3cc4[nH]nc(C5CC5)c4n(-c4ccc(OC(F)F)cc4)c3=O)cc2n1C

hepatocyte CLint [1]: 3 µL/min/1e6 cells | logD [2]: 3.5
Compound: COc1ccc(-c2cc3[nH]nc(C4CC4)c3n(-c3ccc(OC(F)F)cc3)c2=O)cn1

hepatocyte CLint [1]: < 1 µL/min/1e6 cells | logD [2]: 2
Compound: Cn1cc(-c2cc3[nH]nc(C4CC4)c3n(-c3ccc(OC(F)F)cc3)c2=O)ccc1=O

hepatocyte CLint [1]: 7 µL/min/1e6 cells | logD [2]: 4
Compound: COc1ccc(-c2cc3[nH]nc(C4CC4)c3n(-c3ccc(OC(F)F)cc3)c2=O)cc1

Source: ChEMBL document CHEMBL5518219, “Development of a Series of Pyrrolopyridone MAT2A Inhibitors” (J Med Chem, 2024)
